According to the supplement of paper PMC10307832:

Assays:
Assay in all cases: relative viability (nuclei count vs DMSO), 5 days (fraction); higher = more cells survive
CAL-12T = tested on: CAL-12T
Procedure, shortened: (§1)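 Lung cancer cell lines in 1536-well plates were dosed by pin tool the day after seeding, either with one drug alone or with a fixed anchor-drug dose plus five library-drug doses (not always all listed) in √10 steps. After 5 days, cells were fixed and their nuclei stained in one step (final 0.05% Triton X-100, 1% formaldehyde, 1 ug/ml Hoechst), then counted on 4× images. Relative viability is the nuclei count in treated wells divided by that in vehicle wells. Values are medians of duplicate plates.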

LK-2 = tested on: LK-2
Procedure, shortened: as §1

NCI-H1793 = tested on: NCI-H1793
Procedure, shortened: as §1

NCI-H1944 = tested on: NCI-H1944
Procedure, shortened: as §1

EKVX = tested on: EKVX
Procedure, shortened: as §1

NCI-H2228 = tested on: NCI-H2228
Procedure, shortened: as §1

NCI-H661 = tested on: NCI-H661
Procedure, shortened: as §1

SK-MES-1 = tested on: SK-MES-1
Procedure, shortened: as §1

NCI-H1915 = tested on: NCI-H1915
Procedure, shortened: as §1

LC-2-ad = tested on: LC-2-ad
Procedure, shortened: as §1

SK-LU-1 = tested on: SK-LU-1
Procedure, shortened: as §1

COR-L 105 = tested on: COR-L 105
Procedure, shortened: as §1

NCI-H1395 = tested on: NCI-H1395
Procedure, shortened: as §1

EMC-BAC-2 = tested on: EMC-BAC-2
Procedure, shortened: as §1

LXF-289 = tested on: LXF-289
Procedure, shortened: as §1

H3255 = tested on: H3255
Procedure, shortened: as §1

NCI-H1437 = tested on: NCI-H1437
Procedure, shortened: as §1

NCI-H1651 = tested on: NCI-H1651
Procedure, shortened: as §1

PC-3 [JPC-3] = tested on: PC-3 [JPC-3]
Procedure, shortened: as §1

NCI-H2085 = tested on: NCI-H2085
Procedure, shortened: as §1

NCI-H2087 = tested on: NCI-H2087
Procedure, shortened: as §1

NCI-H2347 = tested on: NCI-H2347
Procedure, shortened: as §1

NCI-H1755 = tested on: NCI-H1755
Procedure, shortened: as §1

O=c1[nH]c2ccccc2n1C1CCN(CCCC(c2ccc(F)cc2)c2ccc(F)cc2)CC1 [Pimozide] + Cc1nc(NC(=O)N2CCC[C@H]2C(N)=O)sc1-c1ccnc(C(C)(C)C(F)(F)F)c1 [Alpelisib] (partner 2 µM)
relative viability (CAL-12T; first compound 0.08 µM): 1.15
relative viability (CAL-12T; first compound 0.253 µM): 1.07
relative viability (CAL-12T; first compound 0.8 µM): 1.02
relative viability (CAL-12T; first compound 2.53 µM): 1.32
relative viability (CAL-12T; first compound 8 µM): 0.923
relative viability (LK-2; first compound 0.08 µM): 1.12
relative viability (LK-2; first compound 0.253 µM): 1.05
relative viability (LK-2; first compound 0.8 µM): 1.01
relative viability (LK-2; first compound 2.53 µM): 1.01
relative viability (LK-2; first compound 8 µM): 0.779
relative viability (NCI-H1793; first compound 0.08 µM): 0.491
relative viability (NCI-H1793; first compound 0.253 µM): 0.567
relative viability (NCI-H1793; first compound 0.8 µM): 0.988
relative viability (NCI-H1793; first compound 2.53 µM): 0.665
relative viability (NCI-H1793; first compound 8 µM): 0.87
relative viability (NCI-H1944; first compound 0.08 µM): 0.654
relative viability (NCI-H1944; first compound 0.253 µM): 0.817
relative viability (NCI-H1944; first compound 0.8 µM): 0.815
relative viability (NCI-H1944; first compound 2.53 µM): 0.824
relative viability (NCI-H1944; first compound 8 µM): 0.81
relative viability (EKVX; first compound 0.253 µM): 0.806
relative viability (EKVX; first compound 0.8 µM): 0.934
relative viability (EKVX; first compound 2.53 µM): 0.853
relative viability (EKVX; first compound 8 µM): 0.856
relative viability (NCI-H2228; first compound 0.08 µM): 0.623
relative viability (NCI-H2228; first compound 0.253 µM): 0.755
relative viability (NCI-H2228; first compound 0.8 µM): 0.735
relative viability (NCI-H2228; first compound 2.53 µM): 0.737
relative viability (NCI-H2228; first compound 8 µM): 0.482
relative viability (NCI-H661; first compound 0.08 µM): 0.759
relative viability (NCI-H661; first compound 0.253 µM): 0.594
relative viability (NCI-H661; first compound 0.8 µM): 0.592
relative viability (NCI-H661; first compound 2.53 µM): 0.494
relative viability (NCI-H661; first compound 8 µM): 0.766
relative viability (SK-MES-1; first compound 0.08 µM): 0.809
relative viability (SK-MES-1; first compound 0.253 µM): 0.966
relative viability (SK-MES-1; first compound 0.8 µM): 0.874
relative viability (SK-MES-1; first compound 2.53 µM): 0.837
relative viability (SK-MES-1; first compound 8 µM): 0.842
relative viability (NCI-H1915; first compound 0.08 µM): 1.1
relative viability (NCI-H1915; first compound 0.253 µM): 1.06
relative viability (NCI-H1915; first compound 0.8 µM): 0.837
relative viability (NCI-H1915; first compound 2.53 µM): 1.08
relative viability (NCI-H1915; first compound 8 µM): 0.997
relative viability (LC-2-ad; first compound 0.08 µM): 0.762
relative viability (LC-2-ad; first compound 0.253 µM): 0.847
relative viability (LC-2-ad; first compound 0.8 µM): 0.934
relative viability (LC-2-ad; first compound 2.53 µM): 0.879
relative viability (LC-2-ad; first compound 8 µM): 0.776
relative viability (SK-LU-1; first compound 0.08 µM): 0.961
relative viability (SK-LU-1; first compound 0.253 µM): 0.986
relative viability (SK-LU-1; first compound 0.8 µM): 0.926
relative viability (SK-LU-1; first compound 2.53 µM): 0.719
relative viability (SK-LU-1; first compound 8 µM): 0.649
relative viability (COR-L 105; first compound 0.253 µM): 0.854
relative viability (COR-L 105; first compound 0.8 µM): 0.872
relative viability (COR-L 105; first compound 2.53 µM): 0.802
relative viability (COR-L 105; first compound 8 µM): 0.608
relative viability (NCI-H1395; first compound 0.08 µM): 1.31
relative viability (NCI-H1395; first compound 0.253 µM): 0.958
relative viability (NCI-H1395; first compound 0.8 µM): 1.06
relative viability (NCI-H1395; first compound 2.53 µM): 1.16
relative viability (NCI-H1395; first compound 8 µM): 0.952
relative viability (EMC-BAC-2; first compound 0.08 µM): 0.653
relative viability (EMC-BAC-2; first compound 0.253 µM): 0.703
relative viability (EMC-BAC-2; first compound 0.8 µM): 0.682
relative viability (EMC-BAC-2; first compound 2.53 µM): 0.668
relative viability (EMC-BAC-2; first compound 8 µM): 0.744
relative viability (LXF-289; first compound 0.08 µM): 0.97
relative viability (LXF-289; first compound 0.253 µM): 0.955
relative viability (LXF-289; first compound 0.8 µM): 1.01
relative viability (LXF-289; first compound 2.53 µM): 1.02
relative viability (LXF-289; first compound 8 µM): 0.945
relative viability (H3255; first compound 0.253 µM): 0.569
relative viability (H3255; first compound 0.8 µM): 0.599
relative viability (H3255; first compound 2.53 µM): 0.754
relative viability (H3255; first compound 8 µM): 0.711
relative viability (NCI-H1437; first compound 0.08 µM): 1.04
relative viability (NCI-H1437; first compound 0.253 µM): 0.965
relative viability (NCI-H1437; first compound 0.8 µM): 1.02
relative viability (NCI-H1437; first compound 2.53 µM): 0.862
relative viability (NCI-H1437; first compound 8 µM): 0.916
relative viability (NCI-H1651; first compound 0.08 µM): 0.911
relative viability (NCI-H1651; first compound 0.253 µM): 0.945
relative viability (NCI-H1651; first compound 0.8 µM): 0.945
relative viability (NCI-H1651; first compound 2.53 µM): 1.04
relative viability (NCI-H1651; first compound 8 µM): 0.926
relative viability (PC-3 [JPC-3]; first compound 0.253 µM): 0.964
relative viability (PC-3 [JPC-3]; first compound 0.8 µM): 0.978
relative viability (PC-3 [JPC-3]; first compound 2.53 µM): 0.961
relative viability (PC-3 [JPC-3]; first compound 8 µM): 0.96
relative viability (NCI-H2085; first compound 0.08 µM): 0.928
relative viability (NCI-H2085; first compound 0.253 µM): 0.962
relative viability (NCI-H2085; first compound 0.8 µM): 0.875
relative viability (NCI-H2085; first compound 2.53 µM): 0.981
relative viability (NCI-H2085; first compound 8 µM): 0.864
relative viability (NCI-H2087; first compound 0.08 µM): 0.847
relative viability (NCI-H2087; first compound 0.253 µM): 1.1
relative viability (NCI-H2087; first compound 0.8 µM): 1.01
relative viability (NCI-H2087; first compound 2.53 µM): 0.975
relative viability (NCI-H2087; first compound 8 µM): 0.89
relative viability (NCI-H2347; first compound 0.08 µM): 1.11
relative viability (NCI-H2347; first compound 0.253 µM): 0.966
relative viability (NCI-H2347; first compound 0.8 µM): 0.914
relative viability (NCI-H2347; first compound 2.53 µM): 1.01
relative viability (NCI-H2347; first compound 8 µM): 0.966
relative viability (NCI-H1755; first compound 0.08 µM): 0.918
relative viability (NCI-H1755; first compound 0.253 µM): 0.885
relative viability (NCI-H1755; first compound 0.8 µM): 0.87
relative viability (NCI-H1755; first compound 2.53 µM): 0.786
relative viability (NCI-H1755; first compound 8 µM): 0.727
